Measurements reported in BindingDB's records for doi:10.1016/s0960-894x(03)00528-6 (Aston University, 2003).

Each compound was assayed against Arachidonate 15-lipoxygenase (Oryctolagus cuniculus) (assay: In vitro inhibitory activity of compound on rabbit reticulocyte 15-lipoxygenase).

Row | Compound | IC50 [µM]
1 | O=C(/C=C/c1ccc(NC(=O)c2ccccc2O)cc1)Nc1ccc(O)c(O)c1 [N-{4-[2-(3,4-Dihydroxy-phenylcarbamoyl)-vinyl]-phenyl}-2-hydroxy-benzamide] | 1.47
2 | O=C(CCc1ccc(NC(=O)c2ccccc2O)cc1)Nc1ccc(O)c(O)c1 [N-{4-[2-(3,4-Dihydroxy-phenylcarbamoyl)-ethyl]-phenyl}-2-hydroxy-benzamide] | 1.45
3 | O=C(Nc1ccc(NC(=O)c2ccccc2O)cc1)Nc1ccc(O)c(O)c1 [N-{4-[3-(3,4-Dihydroxy-phenyl)-ureido]-phenyl}-2-hydroxy-benzamide] | 1.51

Stronger by IC50, values ahead:

Row | IC50 [µM] | Compound
4 | 1.27 | O=C(Nc1ccc(O)c(O)c1)c1ccc(NC(=O)c2ccccc2O)cc1 [N-(4-{[(3,4-dihydroxyphenyl)amino]carbonyl}phenyl)-2-hydroxybenzamide]
5 | 1.01 | O=C(Nc1ccc(O)c(O)c1)c1ccc(NCc2ccccc2O)cc1 [N-(3,4-Dihydroxy-phenyl)-4-(2-hydroxy-benzylamino)-benzamide]
